Square brackets hold non-standard residues; d marks the D form. Peptide text beside a SMILES is read from it. * marks the point of attachment. NHPhenethyl = c1ccc(CCN*)cc1; NMeM = CN[C@@H](CCSC)C(=O)O; NMeV = CN[C@H](C(=O)O)C(C)C
How the values were obtained:
[1] = test system: Trypanosoma brucei rhodesiense; assay: Antitrypanosomal activity against Trypanosoma brucei rhodesiense STIB900 bloodstream forms after 72 hrs by Alamar blue staining-based fluorometric analysis; format: functional, organism-based; conditions: STIB900, 72 h
Trypanosoma cruzi = assay: Antiparasitic activity against Trypanosoma cruzi Tulahuen C4 trypomastigotes infected in rat L6 cells after 96 hrs by CPRG/Nonidet reagent based photometric analysis; format: functional, organism-based; conditions: Tulahuen C4, L6, 96 h
Plasmodium falciparum = assay: Antiplasmodial activity against Plasmodium falciparum NF54 erythrocytic stage assessed as reduction in [3H]hypoxanthine incorporation preincubated for 48 hrs followed by [3H]hypoxanthine addition and measured after 24 hrs by liquid scintillation counting method; format: functional, organism-based
Leishmania donovani = assay: Antileishmanial activity against Leishmania donovani MHOM/ET/67/L82 axenic amastigotes after 72 hrs by alamar blue staining based fluorescence assay; format: functional, organism-based; conditions: MHOM/ET/67/L82, 72 h
L6 = assay: Cytotoxicity against rat L6 cells assessed as reduction in cell viability after 72 hrs by Alamar blue staining-based fluorometric analysis; conditions: L6, 72 h

Row | IC50 [1] | IC50 (Trypanosoma cruzi) | IC50 (Plasmodium falciparum) | Structure (SMILES) | IC50 (Leishmania donovani) | IC50 (L6)
1 | 7.3 µM | 14.2 µM | 3.2 µM | CSCC[C@@H](C(=O)N[C@H](C(=O)N(C)[C@H](C(=O)N(C)[C@H](C(=O)NCCc1ccccc1)C(C)C)C(C)C)C(C)C)N(C)C(=O)[C@@H](N)C(C)C (H-V[NMeM]V[NMeV][NMeV]-NHPhenethyl) | 18.8 µM | 70.8 µM
2 | 8.5 µM | 62.9 µM | 7.9 µM | CSCC[C@@H](C(=O)N(C)[C@H](C(=O)N(C)[C@H](C(=O)NCCc1ccccc1)C(C)C)C(C)C)N(C)C(=O)[C@@H](N)C(C)C (H-V[NMeM][NMeV][NMeV]-NHPhenethyl) | > 100 µM | 75.2 µM
3 | 2.7 µM | 12.6 µM | 2.3 µM | CSCC[C@@H](C(=O)N(C)[C@H](C(=O)N(C)[C@H](C(=O)N(C)[C@H](C(=O)NCCc1ccccc1)C(C)C)C(C)C)C(C)C)N(C)C(=O)[C@@H](N)C(C)C (H-V[NMeM][NMeV][NMeV][NMeV]-NHPhenethyl) | 92.3 µM | 23.9 µM
4 | 5.7 µM | 25.4 µM | 4.1 µM | CN[C@H](C(=O)N[C@H](C(=O)N(C)[C@@H](CCSC)C(=O)N(C)[C@H](C(=O)N(C)[C@H](C(=O)NCCc1ccccc1)C(C)C)C(C)C)C(C)C)C(C)C (H-[NMeV]V[NMeM][NMeV][NMeV]-NHPhenethyl) | > 100 µM | 31.3 µM
5 | 12.3 µM | 75 µM | 10.9 µM | CN[C@H](C(=O)N[C@H](C(=O)N(C)[C@H](C(=O)N(C)[C@@H](CCSC)C(=O)NCCc1ccccc1)C(C)C)C(C)C)C(C)C (H-[NMeV]V[NMeV][NMeM]-NHPhenethyl) | > 100 µM | > 100 µM
6 | 10.5 µM | 69.4 µM | 5.3 µM | CN[C@H](C(=O)N[C@H](C(=O)N(C)[C@H](C(=O)N(C)[C@H](C(=O)NCCc1ccccc1)C(C)C)C(C)C)C(C)C)C(C)C (H-[NMeV]V[NMeV][NMeV]-NHPhenethyl) | > 100 µM | 89.1 µM
7 | 4.3 µM | 53 µM | 6.6 µM | CN[C@H](C(=O)N[C@H](C(=O)N(C)[C@H](C(=O)N(C)[C@H](C(=O)N(C)[C@@H](CCSC)C(=O)NCCc1ccccc1)C(C)C)C(C)C)C(C)C)C(C)C (H-[NMeV]V[NMeV][NMeV][NMeM]-NHPhenethyl) | > 100 µM | 71.2 µM
8 | 1.4 µM | 26.2 µM | 4.6 µM | CN[C@H](C(=O)N[C@H](C(=O)N(C)[C@H](C(=O)N(C)[C@H](C(=O)N(C)[C@H](C(=O)NCCc1ccccc1)C(C)C)C(C)C)C(C)C)C(C)C)C(C)C (H-[NMeV]V[NMeV][NMeV][NMeV]-NHPhenethyl) | > 100 µM | 56.2 µM
9 |  | 2.8 µM |  | O=C(Cn1ccnc1[N+](=O)[O-])NCc1ccccc1 [BENZNIDAZOLE] |  | 
10 |  |  |  | COc1cc([C@@H]2c3cc4c(cc3[C@H](O)[C@H]3COC(=O)[C@H]23)OCO4)cc(OC)c1OC [PODOFILOX] |  | 0.01 µM

From ChEMBL document CHEMBL4411264, “Methionine-Containing Rhabdopeptide/Xenortide-like Peptides from Heterologous Expression of the Biosynthetic Gene Cluster kj12ABC in Escherichia coli” (J Nat Prod, 2018)
